The text below walks through data of PubChem BioAssay AID1418 (Emory University Molecular Libraries Screening Center, 2008).

Activity calls are given as the source filed them. No rule for the calls is given here.

The target in the test is Induced myeloid leukemia cell differentiation protein Mcl-1 (Homo sapiens) (UniProt Q07820). Kind of test: blockers of Bid binding to Mcl-1 – biochemical, TR-FRET, dose response (AID 1418). The settings on record: Mcl-1/Bid peptide binding, TR-FRET (europium/Dy647), 2 hr. (In general: TR-FRET usually uses a lanthanide donor and a delayed reading to cut background.)
Sequence of Induced myeloid leukemia cell differentiation protein Mcl-1 (Homo sapiens) (Q07820 whole entry, looked up): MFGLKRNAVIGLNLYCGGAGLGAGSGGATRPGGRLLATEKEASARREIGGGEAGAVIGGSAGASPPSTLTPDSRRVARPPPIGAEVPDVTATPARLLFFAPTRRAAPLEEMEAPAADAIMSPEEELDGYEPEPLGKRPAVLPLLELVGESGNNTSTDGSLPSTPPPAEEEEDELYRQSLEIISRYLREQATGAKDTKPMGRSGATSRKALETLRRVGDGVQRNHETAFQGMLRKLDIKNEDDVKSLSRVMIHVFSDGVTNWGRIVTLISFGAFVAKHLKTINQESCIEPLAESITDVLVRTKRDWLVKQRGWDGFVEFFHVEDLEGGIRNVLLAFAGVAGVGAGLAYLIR

For `COC(=O)c1ccc(CNC(=O)c2c3c(nc4ccccc24)CCN(Cc2ccccc2)C3)cc1`, the IC50 was > 54 µM (inactive).

For the compound `O=C(CN(C(=O)CNC(=O)c1ccco1)c1ccc2c(c1)OCO2)NC1CCCCC1`, the IC50 was > 54 µM (inactive).

On to `COc1cccc(OC)c1C(=O)N1CCN(c2ccccn2)CC1`, for which the IC50 is > 54 µM (inactive).

For `Oc1cc2c(cc1C(c1ccc(Cl)c(Cl)c1)N1CCCC1)OCO2` (configuration not stated), the IC50 is 0.59 µM.

For `CCOC(=O)c1ccc(NC(=O)Oc2ccccc2)cc1`, the IC50 is > 54 µM (inactive).

Regarding `OCC1CCCN(c2nc(CN3CCCCC3)nc3scc(-c4ccccc4)c23)C1` (configuration not stated), the IC50 was > 54 µM (inactive).

As to `COc1ccc2nc(C)cc(SCC(=O)Nc3c(C)cccc3C)c2c1`, the concentration for half-maximal inhibition (IC50) is 10.5 µM.

Turning to `COc1ccc(CCNC(=O)COC(=O)Cc2ccccc2)cc1`, the IC50 is > 54 µM (inactive).

For `C=C(C=O)CC1CC(O)[C@]2(C)OC3CC4OC5C[C@]6(C)O[C@]7(C)CCC8OC9C[C@]%10(C)OC%11C(C)=CC(=O)OC%11CC%10OC9C[C@@H](C)C8OC7CC6O[C@]5(C)CC5OC5C4OC3CC2O1` (some centres not stated), the IC50 was > 54 µM (inactive).

As for `COc1ccc(Cl)cc1C(Nc1cccnc1)c1ccc2cccnc2c1O` (configuration not stated), the IC50 is 0.62 µM.

As for `Cc1sc2ncnc(OCC(=O)Nc3ccc4c(c3)OCCO4)c2c1C`, the IC50 was > 54 µM (inactive).

`Oc1c(Cl)cc(Cl)c(Cl)c1Cc1c(O)c(Cl)cc(Cl)c1Cl`: the 50% inhibitory concentration (IC50) was 0.86 µM.

Turning to `Cc1cc(-c2ccco2)n2c(nc3ccccc32)c1C#N`, the IC50 is > 54 µM (inactive).

Take `Nc1nc(Nc2cccc(F)c2)nc(N2CCOCC2)c1[N+](=O)[O-]`: the IC50 was > 54 µM (inactive).

Regarding `Cc1ccc(C(=O)NNC(=O)CCC(=O)Nc2cc(C)on2)cc1`, the IC50 is > 54 µM (inactive).

Consider `C=CCOC(=O)c1cc(-c2ccc(/C=C3\C(=O)NC(=O)C(C#N)=C3C)o2)ccc1Cl`, for which the concentration for half-maximal inhibition (IC50) is 0.53 µM.

Take `CC(=O)Cc1nsc(NC(=O)c2ccc(-c3cc(C(F)(F)F)ccc3Cl)o2)n1`: the IC50 was > 54 µM (inactive).

For the compound `C/C(=N\NC(=O)c1cc(-c2cccc([N+](=O)[O-])c2)n[nH]1)c1ccccc1O`, the IC50 was 29 µM.

As to `COc1ccc(-c2ccc(/C=C3/C(=N)N4C=CSC4=NC3=O)o2)c([N+](=O)[O-])c1`, the IC50 is 1.46 µM.

Turning to `CCN(CC)CCNC(=O)/C(=C/c1cn(C)c2ccccc12)NC(=O)c1ccc(OC)c(OC)c1`, the IC50 was > 54 µM (inactive).

Take `O=[N+]([O-])/C(C(Cl)=C(Cl)Cl)=C(\Nc1ccc(F)cc1)n1cncn1`: the IC50 was 17.4 µM.

`CC(=O)N(/N=C/c1cccc(C)c1)c1nc(-c2ccc(Br)cc2)cs1`: the IC50 was > 54 µM (inactive).

Turning to `CN1C(=O)/C(=C2\SC(=S)N(CCCCCC(=O)O)C2=O)c2ccccc21`, the IC50 was 29.4 µM.

On to `COc1cc(OC)cc(C(=O)N2CCN(Cc3ccccc3C(F)(F)F)CC2)c1`, for which the IC50 result was “inactive”.

In the case of `CCS(=O)(=O)N1CCN(C(C)CCc2ccccc2)CC1` (configuration not stated), the IC50 is > 54 µM (inactive).

On to `Cc1nnc(Sc2c(N)n(C)c(=O)[nH]c2=O)s1`, for which the IC50 is > 54 µM (inactive).

Turning to `CCOc1ccc(N/C(=C(/C(Cl)=C(Cl)Cl)[N+](=O)[O-])n2cncn2)cc1`, the IC50 is > 54 µM (inactive).

For the compound `Cc1n[nH]c(C)c1S(=O)(=O)N1CCN(c2ccccn2)CC1`, the IC50 was > 54 µM (inactive).

On to `Cc1ccc([N+](=O)[O-])cc1N=Nc1c(-c2ccc([N+](=O)[O-])cc2)[nH]n(C(N)=S)c1=O`, for which the IC50 is 2.22 µM.

As to `Cc1occc1C(=O)N/N=C/c1ccc(N(C)C)cc1`, the IC50 is > 54 µM (inactive).

Take `O=C(COC(=O)CCS(=O)(=O)c1ccc(Cl)cc1)Nc1ncc(Cl)cc1Cl`: the IC50 was > 54 µM (inactive).

Regarding `Cc1ccc(C)c(C(=O)COC(=O)CCCC(=O)Nc2cc(C(F)(F)F)ccc2Cl)c1`, the IC50 was > 54 µM (inactive).

In the case of `O=C(NC(=S)Nc1ccc2c(c1)OCCO2)c1ccccc1F`, the IC50 was > 54 µM (inactive).

Consider `CCc1ccc(NC(=S)NC2CC3CCC(C2)N3Cc2ccco2)cc1` (configuration not stated), for which the IC50 is > 54 µM (inactive).

As to `N=C1/C(=C\c2ccc(-c3ccc(C(=O)O)cc3)o2)C(=O)N=C2SC=C(c3ccccc3)N12`, the 50% inhibitory concentration (IC50) is 2.76 µM.

With `Oc1c(Cl)cc(Cl)cc1Sc1cc(Cl)cc(Cl)c1O`, the IC50 is 1.67 µM.

In the case of `Cc1ccc(CNC(=O)c2ccc3nc4[nH]c5ccccc5c4nc3c2)cc1`, the IC50 is 6.82 µM.

In the case of `O=C(CSc1ccccn1)Nc1ccc2c(c1)C(=O)c1ccccc1C2=O`, the concentration for half-maximal inhibition (IC50) was 1.72 µM.

`CCCCCCn1c(O)c(C=NCCN2CCOCC2)c(=O)[nH]c1=O`: the IC50 was > 54 µM (inactive).

Regarding `Cc1ccc(NC(=O)CN2CCc3ccccc3C2)cc1F`, the IC50 was > 54 µM (inactive).

As for `O=C(c1ccco1)N1C(=O)c2cccc3c(S(=O)(=O)N4CCCC4)ccc1c23`, the IC50 was > 54 µM (inactive).

As to `O=c1n(S(=O)(=O)c2cccc3cccnc23)c2ccccc2n1S(=O)(=O)c1cccc2cccnc12`, the IC50 was > 54 µM (inactive).

Take `Cc1cc(N)n(-c2ccc3ccccc3c2)n1`: the IC50 was > 54 µM (inactive).

`COc1ccccc1NC(=O)CSc1nnnn1-c1ccc2c(c1)OCO2`: the IC50 was > 54 µM (inactive).

With `CC1=C(SCCC#N)S/C(=C2\SC(C)=C(SCCC#N)S2)S1`, the half-maximal inhibitory concentration (IC50) is 2.84 µM.

Turning to `CN(c1cccc(NC(=O)c2ccccc2N(C)S(C)(=O)=O)c1)S(C)(=O)=O`, the IC50 was > 54 µM (inactive).

`CN(CCO)S(=O)(=O)c1ccc2c(c1)C(=NO)c1cc(S(=O)(=O)N(C)CCO)ccc1-2`: the IC50 is > 54 µM (inactive).

For `NS(=O)(=O)c1cc2c(cc1Cl)NC(Cc1ccccc1)NS2(=O)=O` (configuration not stated), the IC50 is > 54 µM (inactive).

Turning to `O=C(O)c1cc(N2N=C(C(F)(F)F)/C(=C/C=C/c3ccco3)C2=O)ccc1Cl`, the IC50 is 1.4 µM.

In the case of `Cc1cccc(OCc2nc(C#N)c(NCc3ccc4c(c3)OCO4)o2)c1`, the IC50 was > 54 µM (inactive).

As to `NC(=S)n1[nH]c(-c2ccc([N+](=O)[O-])cc2)c(N=Nc2cccc(Cl)c2)c1=O`, the IC50 is 0.68 µM.

Consider `Nc1nnc(SCC(=O)N2CCN(c3ccccc3)CC2)n1-c1ccccc1`, for which the IC50 is > 54 µM (inactive).

As for `COC(=O)/C(=N/Nc1ccccc1)N1CCCc2ccccc21`, the IC50 was > 54 µM (inactive).

As for `O=c1oc2ccccc2n1CCn1c2ccccc2c2nc3ccccc3nc21`, the 50% inhibitory concentration (IC50) is 8.21 µM.

Consider `COc1cc(/C=C2/SC(=S)N(CC3CCCO3)C2=O)ccc1O` (configuration not stated), for which the IC50 is > 54 µM (inactive).

For `COc1ccc(C2Nc3ccccc3C(=O)N2O)cc1OC` (configuration not stated), the IC50 is > 54 µM (inactive).

For the compound `O=C(c1ccccc1)N1CCN(C2CCCCCC2)CC1`, the IC50 was > 54 µM (inactive).

As to `O=C(CN1CCN(CCN2C(=O)c3cccc4cccc(c34)C2=O)CC1)c1ccc(F)cc1`, the IC50 was > 54 µM (inactive).

As to `O=C1C(=Cc2ccc(Br)o2)C(=O)c2ccccc21`, the half-inhibitory concentration (IC50) was 3.15 µM.

Take `O=C(NNC(=O)c1ccccc1Cl)c1ccccc1Cl`: the IC50 was > 54 µM (inactive).

For the compound `CC1(c2ccccc2)CC(C)(C)N2C(=O)/C(=C3\SC(=S)NC3=O)c3cccc1c32` (configuration not stated), the 50% inhibitory concentration (IC50) was 2.16 µM.

Consider `O=c1c2ccccc2sc2nc(C3CCCCC3)n(Cc3ccco3)c(=O)c12`, for which the IC50 is 19.3 µM.

Regarding `CC1(C)Cc2cccc(OCC(=O)OCC(=O)Nc3cccc(S(N)(=O)=O)c3)c2O1`, the IC50 is > 54 µM (inactive).

Take `COc1ccc2c(=O)c3c(=O)n(CCc4ccccc4)c(C(C)C)nc3oc2c1`: the IC50 was > 54 µM (inactive).

On to `Cc1ccc(S(=O)(=O)N(C)CC(O)Cn2c3ccccc3c3ccccc32)cc1` (configuration not stated), for which the IC50 was > 54 µM (inactive).

With `Cc1ccc(/C=N/NC(=O)c2cc3c(ccc4ccccc43)o2)cc1[N+](=O)[O-]`, the IC50 is 11.1 µM.

For the compound `COc1ccc(-c2cc3nc4ccccc4n3c(N)c2C#N)cc1`, the IC50 was 2.76 µM.

As to `CSc1cccc(NC(=O)CN(C)S(=O)(=O)c2ccccc2)c1`, the IC50 is > 54 µM (inactive).

With `Cc1cccc(NC(=O)c2cc(N3C(=O)CCC3=O)ccc2Cl)n1`, the IC50 is > 54 µM (inactive).

Turning to `COc1ccccc1CCc1nnc(CCC(=O)NC(C)Cc2cccnc2)o1` (configuration not stated), the IC50 was > 54 µM (inactive).

Regarding `CC(=O)Nc1cccc(NC(=O)Nc2ccc(C(C)=O)cc2)c1`, the IC50 was > 54 µM (inactive).

For `O=C(NCc1ccco1)c1cccn2c(=O)c3cc4ccccc4cc3nc12`, the IC50 is 0.52 µM.

Take `Cc1ccc(-c2nn(CC(=O)NCc3cc(-c4nn(C)c(=O)c5ccccc45)ccc3C)c(=O)c3ccccc23)cc1`: the half-inhibitory concentration (IC50) is 0.85 µM.

As for `COc1ccc(C(=O)N2CCN(Cc3ccccc3C)CC2)cc1OC`, the IC50 is > 54 µM (inactive).

Consider `O=S(=O)(NCc1ccccc1)c1cccc(S(=O)(=O)N2CCOCC2)c1`, for which the IC50 was > 54 µM (inactive).

In the case of `N#C/C(=C\c1ccc(N2CCCC2)c([N+](=O)[O-])c1)c1nc2ccccc2[nH]1`, the IC50 is 21.6 µM.

On to `O=C(/C=C/N1CCOCC1)c1cc2ccccc2o1`, for which the IC50 was > 54 µM (inactive).

Regarding `CC(NC(=O)NC1CCCCC1)C(c1cccs1)N1CCN(c2ccccc2)CC1` (configuration not stated), the IC50 was > 54 µM (inactive).

For the compound `CCNc1ccc2noc3c2c1C(=O)c1ccccc1-3`, the IC50 is 14.7 µM.

For the compound `O=C1c2ccccc2C(=O)C1Cc1cccc2ccccc12`, the half-inhibitory concentration (IC50) was 8.94 µM.

With `COc1ccc(-c2nnn(CC(=O)N(CCCO)C(C(=O)NC3CCCC3)c3ccncc3)n2)cc1` (configuration not stated), the IC50 is > 54 µM (inactive).

On to `COC(=O)/C=C1/SC(=Nc2ccc(C)cc2C)NC1=O`, for which the IC50 was > 54 µM (inactive).

For the compound `Cc1ccc2nc(N3CC(=O)Nc4ccccc43)nc(-c3ccccc3)c2c1`, the IC50 is > 54 µM (inactive).

As for `CC1=NOC(=O)/C1=C\c1ccc(-c2ccc(Cl)cc2Cl)o1`, the IC50 is 1.94 µM.

Turning to `Cc1ccc(S(=O)(=O)/N=C2/C=C(Sc3ncn[nH]3)C(=O)c3ccccc32)cc1`, the half-maximal inhibitory concentration (IC50) was 2.73 µM.

Regarding `CC(C)[C@H](NC(=O)NCCC1=CCCCC1)C(=O)O`, the IC50 was > 54 µM (inactive).

`COc1ccc(NC(=S)NNc2ccc(S(=O)(=O)Nc3ccccc3C(=O)O)cc2[N+](=O)[O-])cc1`: the IC50 is 22.3 µM.

A word on the IC50: it is the concentration that inhibits the measured activity by half.
